BindingDB's records for doi:10.1021/cb100011u (Academia Sinica, 2010)

How the values were obtained:
Protein O-GlcNAcase = target: T1, Protein O-GlcNAcase (Homo sapiens, UniProt O60502); assay: Enzyme Inhibition Assay; details: pH 4.25; 30 °C
T1 sequence (O60502 whole entry): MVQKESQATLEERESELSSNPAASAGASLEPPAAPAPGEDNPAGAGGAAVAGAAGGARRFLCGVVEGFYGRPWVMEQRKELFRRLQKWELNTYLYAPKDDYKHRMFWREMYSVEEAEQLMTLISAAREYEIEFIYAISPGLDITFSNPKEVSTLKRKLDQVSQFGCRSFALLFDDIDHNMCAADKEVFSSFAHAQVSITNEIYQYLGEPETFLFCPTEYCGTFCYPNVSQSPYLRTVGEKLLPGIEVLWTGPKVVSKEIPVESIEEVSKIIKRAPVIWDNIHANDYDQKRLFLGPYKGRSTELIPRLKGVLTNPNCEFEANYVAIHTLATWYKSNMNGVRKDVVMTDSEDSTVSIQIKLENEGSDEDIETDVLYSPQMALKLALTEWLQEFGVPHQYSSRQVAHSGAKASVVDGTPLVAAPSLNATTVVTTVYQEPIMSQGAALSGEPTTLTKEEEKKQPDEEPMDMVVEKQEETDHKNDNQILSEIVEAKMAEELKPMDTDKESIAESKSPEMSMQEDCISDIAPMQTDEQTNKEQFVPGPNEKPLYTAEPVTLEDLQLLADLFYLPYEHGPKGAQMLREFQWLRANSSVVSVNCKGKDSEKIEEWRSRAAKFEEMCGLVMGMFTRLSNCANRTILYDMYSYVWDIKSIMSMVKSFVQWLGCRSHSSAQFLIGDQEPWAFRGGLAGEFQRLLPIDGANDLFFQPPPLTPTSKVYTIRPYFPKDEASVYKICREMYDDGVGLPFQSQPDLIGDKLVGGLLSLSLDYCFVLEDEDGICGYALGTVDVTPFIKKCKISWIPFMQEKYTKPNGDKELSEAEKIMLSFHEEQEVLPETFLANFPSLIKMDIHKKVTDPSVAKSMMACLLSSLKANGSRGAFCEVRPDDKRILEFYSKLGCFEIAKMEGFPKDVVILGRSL
Text: (§1) Enzyme inhibition activity assay using 4-methylumbelliferyl N-acetylglucosamine (MUG) as substrate.

[1] = target: T2, Beta-hexosaminidase subunit beta (Homo sapiens, UniProt P07686); assay: Enzyme Inhibition Assay; details: pH 4.25; 30 °C
T2 sequence (P07686 whole entry): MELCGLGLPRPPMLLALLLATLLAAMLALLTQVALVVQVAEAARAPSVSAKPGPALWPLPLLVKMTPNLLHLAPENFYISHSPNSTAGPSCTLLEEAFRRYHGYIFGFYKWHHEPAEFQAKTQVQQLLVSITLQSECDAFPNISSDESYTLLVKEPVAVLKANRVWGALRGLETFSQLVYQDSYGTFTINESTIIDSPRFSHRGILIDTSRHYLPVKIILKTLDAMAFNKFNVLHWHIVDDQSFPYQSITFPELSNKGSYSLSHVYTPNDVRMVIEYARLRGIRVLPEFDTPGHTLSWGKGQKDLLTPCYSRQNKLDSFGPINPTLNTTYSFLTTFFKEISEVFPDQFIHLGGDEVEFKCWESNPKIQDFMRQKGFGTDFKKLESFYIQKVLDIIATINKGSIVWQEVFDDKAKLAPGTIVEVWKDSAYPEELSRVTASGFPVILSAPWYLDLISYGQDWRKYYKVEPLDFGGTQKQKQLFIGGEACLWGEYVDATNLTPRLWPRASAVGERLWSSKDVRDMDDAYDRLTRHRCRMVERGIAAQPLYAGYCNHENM
Text: as §1

Ki (Protein O-GlcNAcase): 23.6 µM
Ki [1]: 540 nM
Structure (SMILES): CC(=O)N[C@H]1CN[C@H](CO)[C@@H](O)[C@@H]1O
